The test system of series [1] is M. abscessus subsp. abscessus ATCC 19977 844-TMF^r-4 (GyrB M474I). In words: MIC, resistant mutant. It counts as cell-based, Mycobacterium abscessus. The conditions noted are these: Mycobacteroides abscessus, ATCC19977.
In series [2] the test system is M. abscessus subsp. abscessus ATCC 19977 MXF^r-2 (GyrA D96N). The series can be described thus: MIC, resistant mutant. The class given is cell-based, Mycobacterium abscessus. The conditions noted are these: Mycobacteroides abscessus, ATCC19977.
The test system of series [3] is M. abscessus subsp. abscessus ATCC 19977 MXF^r-3 (GyrA D96G). The series can be described thus: MIC, resistant mutant. The class given is cell-based, Mycobacterium abscessus. The conditions noted are these: Mycobacteroides abscessus, ATCC19977.
Series [4] addresses recombinant M. abscessus wild-type DNA gyrase (Mycobacteroides abscessus, UniProt B1ME45+B1ME58). The series can be described thus: biochemical. Set-up: species or system Mycobacterium abscessus.
For series [5], the system named is M. abscessus subsp. abscessus ATCC 19977 biofilm. The series can be described thus: Antibiofilm activity, MBEC biofilm assay. The class given is cell-based, Mycobacterium abscessus. The conditions noted are these: 1×, 4×, 8× MIC; surface-attached CFU after 2 and 3 days. On the procedure: The antibiofilm activity of 844 and 844-TMF was determined employing the MBEC 96-well Biofilm assay kit (19111; Innovotech, Edmonton, AB, Canada) as described previously ([15]) with minor modifications. Briefly, exponentially growing M. abscessus subsp. abscessus ATCC 19977 cultures were spun down at 3,200 × g for 10 min and washed with 7H9 broth without Tween 80 (‘7H9’). Bacteria were resuspended in ‘7H9’ to an OD600 of 0.0125, and 150 μl was dispensed into the wells of Innovotech 96-well plates. Pegs (protruding from the specialized lids of the Innovotech multiwell plates) were inserted into the bacterial suspensions in the wells, and the cultures were grown 24 h with shaking at 110 rpm at 37°C to allow attachment and growth of the bacteria on the surface of the pegs. […] Biofilm growth on the pegs was measured by CFU determination. The pegs were washed in 200 μl ‘7H9’ medium, removed, and placed in 1.7-ml microcentrifuge tubes (87003-294; VWR, Radnor, PA, USA) containing 500 μl PBS/Tween 80 (0.025%). The tubes were vortexed at 2,000 rpm for 90 s to detach and suspend the bacteria from the pegs before samples were serially diluted and plated onto 7H10 agar supplemented with 0.4% activated charcoal to determine CFU/peg.

The subject of series [6] is M. abscessus subsp. abscessus ATCC 19977. The series can be described thus: Selection and characterization of spontaneous resistant mutants. The class given is cell-based, Mycobacterium abscessus. The conditions noted are these: ATCC 19977, agar with 8× MIC.
The nature of series [7]: In vivo mouse pharmacokinetics. The conditions noted are these: CD-1 mice. On the procedure:
All animal experiments were approved by the Center for Discovery and Innovation, Institutional Animal Care and Use Committee, and were conducted in compliance with their guidelines. Female CD-1 mice were weighed and received a single dose of […] via the intravenous (i.v.) (5 mg/kg of body weight), oral (p.o.) (25 mg/kg), or subcutaneous (s.c.) (25 mg/kg) dosing route. The compound was formulated as a solution in 5% N,N-dimethylacetamide (DMA)/95% Milli-Q water vehicle. Blood samples were serially collected via the tail snip from each individual mouse at 0.017, 0.25, 1, 3, 5, and 8 h postdose following i.v. dosing and at 0.5, 1, 3, and 5 h postdose following p.o. and s.c. dosing. Blood (50 μl) was collected in capillary Microvette K2EDTA tubes (16.444.100; Sarstedt, Inc.) and kept on ice prior to centrifugation at 1,500 × g for 5 min. The supernatant (plasma) was transferred into a 96-well plate and stored at −80°C.
Liquid chromatography-tandem mass spectrometry (LC-MS/MS) analysis was performed on a Sciex Applied Biosystems Qtrap 6500+ triple-quadrupole mass spectrometer coupled to a Shimadzu Nexera 2 high-pressure liquid chromatography (HPLC) system to quantify each drug in plasma. Neat 1 mg/ml DMSO stocks for 844-TFM were serial diluted in 50:50 acetonitrile (ACN)/water to create standard curves and quality control (QC) spiking solutions. Standards and QCs were created by adding 10 μl of spiking solutions to 90 μl of drug-free plasma (CD-1 K2EDTA Mouse; Bioreclamation IVT). Twenty microliters of control, standard, QC, or study sample were added to 200 μl of ACN/methanol (MeOH) 50:50 protein precipitation solvent containing internal standard (10 ng/ml verapamil). Extracts were vortexed for 5 min and centrifuged at 4,000 rpm for 5 min. One hundred microliters of supernatant was transferred for HPLC-MS/MS analysis and diluted with 100 μl of Milli-Q deionized water.
Chromatography was performed on an Agilent Zorbax SB-C8 column (2.1 × 30 mm; particle size, 3.5 μm) using a reverse-phase gradient. Milli-Q deionized water with 0.1% formic acid was used for the aqueous mobile phase and 0.1% formic acid in ACN for the organic mobile phase. Multiple-reaction monitoring of precursor/product transitions in electrospray positive-ionization mode was used to quantify the analytes. The following multiple reaction monitoring (MRM) transitions were used for 844-TFM (459.10/133.00) and verapamil (455.4/165.2). Sample analysis was accepted if the concentrations of the quality control samples were within 20% of the nominal concentration. Data processing was performed using Analyst software (version 1.6.2; Applied Biosystems Sciex).

The next series in a line: Plasma stability. The class given is in vitro ADME, rhesus monkeys. The conditions noted are these: monkey plasma, 37°C, 1 μg/ml. As to the method: The plasma stability assays were carried out using plasma from female CD-1 mice, New Zealand white rabbits, rhesus monkeys, and humans containing K2EDTA anticoagulant (Bioreclamation). Stability samples consisted of 5 μl of stock compound solution in 50:50 ACN/water and 95 μl of plasma to a final concentration of 1 μg/ml. The samples were incubated at 37°C with shaking; 10 μl of plasma was removed at each time point and combined with 100 μl of ACN/methanol 50:50 protein precipitation solvent containing internal standard (10 ng/ml verapamil). Chromatography for metabolite identification was performed the same as specified for pharmacokinetic sample analysis. Full scan total ion chromatograms (TIC) of plasma extracts were acquired using a Q Exactive high-resolution mass spectrometer (QE-HRMS) at 70,000 mass resolution. Thermo Fisher Compound Discoverer software was used to assist in identifying the 844-TFM metabolites from the QE-HRMS TIC mass spectrum. Figure S2 in the supplemental material illustrates the extracted ion chromatograms (XIC) of 844-TFM and the metabolites using 5 ppm mass accuracy before and after 12 h of incubation in mouse plasma.

Where [8] appears, read: female, mouse, plasma, iv, i.v. 5 mg/kg, average (SD).

This is an account of results in article PMC8284461, “Piperidine-4-Carboxamides Target DNA Gyrase in Mycobacterium abscessus” (Antimicrobial Agents and Chemotherapy, 2021).

Molecules are shown by their SMILES. In brackets after ≈: the same amount, converted by molar mass. Read-outs that look alike come from different tables or passages of the source.

recombinant M. abscessus wild-type DNA gyrase, sequence (B1ME58 entry or part of it): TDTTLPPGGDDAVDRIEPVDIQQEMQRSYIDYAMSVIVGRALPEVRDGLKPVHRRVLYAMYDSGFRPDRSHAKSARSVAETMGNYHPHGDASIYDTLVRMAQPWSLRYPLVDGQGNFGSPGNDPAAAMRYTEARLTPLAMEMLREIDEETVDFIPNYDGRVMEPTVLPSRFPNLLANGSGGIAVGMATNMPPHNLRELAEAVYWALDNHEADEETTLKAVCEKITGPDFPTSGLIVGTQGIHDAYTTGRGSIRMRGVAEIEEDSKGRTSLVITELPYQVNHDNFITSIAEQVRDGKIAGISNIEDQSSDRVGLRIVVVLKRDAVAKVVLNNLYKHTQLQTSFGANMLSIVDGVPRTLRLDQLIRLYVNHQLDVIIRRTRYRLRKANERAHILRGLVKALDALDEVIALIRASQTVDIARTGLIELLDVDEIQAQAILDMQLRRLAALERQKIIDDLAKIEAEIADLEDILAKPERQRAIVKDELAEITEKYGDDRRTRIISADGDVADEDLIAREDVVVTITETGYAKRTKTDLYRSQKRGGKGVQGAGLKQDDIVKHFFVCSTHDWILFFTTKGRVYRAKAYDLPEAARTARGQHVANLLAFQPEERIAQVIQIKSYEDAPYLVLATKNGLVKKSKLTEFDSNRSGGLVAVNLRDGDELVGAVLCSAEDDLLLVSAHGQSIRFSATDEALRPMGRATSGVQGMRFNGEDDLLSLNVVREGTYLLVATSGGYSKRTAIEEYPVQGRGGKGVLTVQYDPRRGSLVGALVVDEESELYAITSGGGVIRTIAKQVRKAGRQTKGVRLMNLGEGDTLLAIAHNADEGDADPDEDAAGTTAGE
recombinant M. abscessus wild-type DNA gyrase, sequence (B1ME45 entry or part of it): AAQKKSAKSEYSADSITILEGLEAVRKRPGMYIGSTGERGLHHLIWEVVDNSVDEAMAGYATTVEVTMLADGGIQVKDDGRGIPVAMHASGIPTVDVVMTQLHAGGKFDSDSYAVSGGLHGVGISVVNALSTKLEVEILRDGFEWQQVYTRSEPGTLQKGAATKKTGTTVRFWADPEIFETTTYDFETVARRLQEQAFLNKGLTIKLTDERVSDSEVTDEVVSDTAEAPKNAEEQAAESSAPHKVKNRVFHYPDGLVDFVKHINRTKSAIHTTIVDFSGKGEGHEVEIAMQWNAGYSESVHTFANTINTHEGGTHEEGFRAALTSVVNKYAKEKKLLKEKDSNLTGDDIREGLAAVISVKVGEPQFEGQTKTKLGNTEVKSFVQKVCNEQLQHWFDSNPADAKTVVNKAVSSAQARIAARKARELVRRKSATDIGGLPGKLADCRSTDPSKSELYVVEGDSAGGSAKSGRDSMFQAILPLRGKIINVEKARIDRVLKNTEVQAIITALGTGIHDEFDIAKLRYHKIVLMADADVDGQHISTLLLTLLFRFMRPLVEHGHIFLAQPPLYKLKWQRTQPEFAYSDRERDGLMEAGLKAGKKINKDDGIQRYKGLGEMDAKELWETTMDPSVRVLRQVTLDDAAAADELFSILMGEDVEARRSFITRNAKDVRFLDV

The MIC is the lowest concentration found to suppress growth. One may read the IC50 as the concentration at which inhibition is half-maximal. As a reminder, the clearance is a measure of how efficiently the substance is removed, as volume per time. A word on the AUC: it is concentration integrated over time. For orientation: half-life means the time needed for the level to fall by half in the phase considered. In general, bioavailability refers to the share of a dose that reaches the circulation, judged against a reference dose that is usually intravenous. As to `COc1ccc2nccc(NC(=O)C3CCN(CCc4ccc(C(F)(F)F)cc4)CC3)c2n1` [844-TFM], the MIC in series [1] was found to be 6 µM (≈ 2.75 µg/mL); in series [2], 2 µM (≈ 0.917 µg/mL); in series [3] it was 1 µM (≈ 0.458 µg/mL). Moreover, the “IC50 fold lower than the IC50 of parental 844” value in series [4] is reported as 2.4 fold. In series [4] (wild-type DNA gyrase, relaxed pBR322 substrate, read-out: IC50, supercoiling activity), the IC50 came out at 1.9 µM. For the same compound, the “bactericidal activity against M. abscessus grown as biofilm” value in series [5] was “bactericidal”. Moreover, in series [6], the “frequency of spontaneous resistance” value is given as 10^−8 /CFU. The V in series [7] (i.v. 5 mg/kg, average (SD)) was 0.811 (0.221) liter/kg. Moreover, in series [7] (setting [8]), the clearance is 10.6 mL/min/kg. The compound further showed a k el in series [7] (setting [8]) of 0.000192 s⁻¹. Further, the AUC in series [7] (female, mouse, plasma, iv, i.v. 5 mg/kg, average (SD), read-out: AUC i.v.) stood at 5630 ng·h/mL; in series [7] (female, mouse, plasma, po, p.o. 25 mg/kg, average (SD), read-out: AUC p.o.), 58 ng·h/mL; in series [7] (female, mouse, plasma, sc, s.c. 25 mg/kg, average (SD), read-out: AUC s.c.) it was 1170 ng·h/mL. Further, in series [7] (female, mouse, plasma, iv, i.v. 5 mg/kg, average (SD), read-out: elimination half-life (converted)), the half-life was 1.03 h. Moreover, the bioavailability in series [7] (female, mouse, plasma, oral, p.o. 25 mg/kg vs i.v. 5 mg/kg, read-out: p.o. bioavailability) was 0.05 to 0.2%; in series [7] (female, mouse, plasma, po, p.o. 25 mg/kg vs i.v. 5 mg/kg, read-out: p.o. bioavailability), 0.15%; in series [7] (female, mouse, plasma, sc, s.c. 25 mg/kg vs i.v. 5 mg/kg, read-out: s.c. bioavailability), 3%. Also, the “remaining after 24 h” value in “Plasma stability” is “approximately 80%”.
